Source: PMC8949129, “Unique Phenanthrenes from Juncus ensifolius and Their Antiproliferative and Synergistic Effects with the Conventional Anticancer Agent Doxorubicin against Human Cancer Cell Lines” (Pharmaceutics, 2022)
Read-outs that look alike come from different tables or passages of the source.

How the values were obtained:
[1] = system: HeLa human cervix carcinoma cells; assay: Antiproliferative MTT assay, HeLa; format: cell-based; details: for IC50: MTT, 72 h, four parallel measurements, read-out: IC50 (µM) ± SD HeLa; for SI MRC-5/HeLa: selectivity index: IC50 in non-tumour cells / IC50 in cancer cells
Procedure: (§1) The human colon adenocarcinoma cells (COLO 205 sensitive and the resistant COLO 320/MDR-LRP expressing P-gp), namely, ATCC-CCL-220.1 (COLO 320) and CCL-222 (COLO 205) were cultured in RPMI 1640 medium supplemented with 10% heat-inactivated fetal bovine serum, 2 mM L-glutamine, 1 mM Na pyruvate, and 100 mM HEPES. HeLa (ATCC® CCL-2™) human cervix carcinoma cells, and MRC-5 (ATCC® CCL-171) human embryonal lung fibroblast cells were cultured in Eagle’s minimal essential medium (EMEM, containing 4.5 g/L glucose) supplemented with a non-essential amino acid mixture, a selection of vitamins, and 10% heat-inactivated fetal bovine serum. The cell lines were detached with 0.25% trypsin and 0.02% EDTA for 5 min at 37 °C.
(§2) In the study, human colonic adenocarcinoma cell lines (doxorubicin-sensitive COLO 205 and multidrug resistant COLO 320 colonic adenocarcinoma cells), HeLa human cervix carcinoma cells and the MRC-5 non-cancerous human embryonic lung fibroblast cell line were used to determine the effect of the compounds on cell growth. The effects of increasing concentrations of compounds on cell growth were tested in 96-well flat-bottomed microtiter plates. […] The compounds were diluted in a volume of 100 μL of the medium. The adherent cells were cultured in 96-well flat-bottomed microtiter plates using EMEM supplemented with 10% heat-inactivated fetal bovine serum. The density of the cells was adjusted to 6 × 10^3 cells in 100 µL per well, the cells were seeded prior to the assay for 24 h at 37 °C, with 5% CO2, and then the medium was removed from the plates, and fresh medium (100 µL per well) was added to the cells. The effects of increasing concentrations of compounds on cell proliferation were tested in 96-well flat-bottomed microtiter plates. The compounds were diluted in the appropriate medium; the dilutions of compounds were performed in separate plates and then added to the cells. The starting concentration of the compounds was 100 µM, and two-fold serial dilution was performed (concentration range: 100–0.19 µM). The culture plates were incubated at 37 °C for 72 h; at the end of the incubation period, 20 µL of MTT (thiazolyl blue tetrazolium bromide, Sigma) solution (from a stock solution of 5 mg/mL) was added to each well. After incubation at 37 °C for 4 h, 100 µL of sodium dodecyl sulfate (SDS) (Sigma) solution (10% in 0.01 M HCI) was added to each well, and the plates were further incubated at 37 °C overnight. Cell growth was determined by measuring the optical density (OD) at 540/630 nm, with a Multiscan EX ELISA reader (Thermo Labsystems, Cheshire, WA, USA). Inhibition of cell growth (expressed as IC50: inhibitory concentration that reduces the growth of the cells exposed to the tested compounds by 50%) was determined from the sigmoid curve where 100 − ((ODsample − ODmedium control)/(ODcell control − ODmedium control)) × 100 was plotted against the logarithm of the compound concentrations. Curves were fitted by Prism5 software (GraphPad Software Inc., San Diego, CA, USA) from four parallel experiments for each cell line. Results are expressed in terms of IC50, defined as the inhibitory dose that reduces the proliferation of the cells exposed to the tested compounds by 50% [20].

[2] = system: MRC-5 human embryonal lung fibroblast cells; assay: Antiproliferative MTT assay, MRC-5 non-tumor cells; format: cell-based; details: four parallel measurements, read-out: IC50 (µM) ± SD MRC-5
Procedure: as §1, §2

[3] = system: HeLa, COLO 205, and COLO 320 cancer cells; assay: Antiproliferative MTT assay, summary over the tested cell lines; format: cell-based; details: Homo sapiens, 72 h, COLO 205, COLO 320, read-out: IC50 values, range over the cancer cell lines
Procedure: as §1
In the study, human colonic adenocarcinoma cell lines (doxorubicin-sensitive COLO 205 and multidrug resistant COLO 320 colonic adenocarcinoma cells), HeLa human cervix carcinoma cells and the MRC-5 non-cancerous human embryonic lung fibroblast cell line were used to determine the effect of the compounds on cell growth. The effects of increasing concentrations of compounds on cell growth were tested in 96-well flat-bottomed microtiter plates. […] The compounds were diluted in a volume of 100 μL of the medium. […] Cell growth was determined by measuring the optical density (OD) at 540/630 nm, with a Multiscan EX ELISA reader (Thermo Labsystems, Cheshire, WA, USA). […]

[4] = system: COLO 205 doxorubicin-sensitive colonic adenocarcinoma cells; assay: Antiproliferative MTT assay, COLO 205; format: cell-based, human; details: for IC50: MTT, 72 h, four parallel measurements, read-out: IC50 (µM) ± SD COLO 205; for SI MRC-5/COLO 205: selectivity index: IC50 in non-tumour cells / IC50 in cancer cells
Procedure: as §1, §2

[5] = system: HeLa cells; assay: Drug combination assay with doxorubicin (MTT, CompuSyn); format: cell-based, human; parameters: key to CI (combination index): CI <1 synergy, ~1 additivity, >1 antagonism; details: for Interaction: interaction type with doxorubicin; for CI (combination index): with doxorubicin, 72 h, average over drug ratios at IC50
Procedure: The HeLa cell line was used to perform this assay. Doxorubicin (2 mg/mL, Teva Pharmaceuticals, Budapest, Hungary) was serially diluted in the horizontal direction, starting with 8.6 µM. The resistance modifier was subsequently diluted in the vertical direction, and the starting concentration was determined based on the IC50. The dilutions of doxorubicin were made in a horizontal direction in 100 µL, and the dilutions of the resistance modifiers occurred vertically in the microtiter plate in a 50 µL volume. The compounds and doxorubicin were diluted separately. […] Then, diluted compounds with a volume of 50 μL were added to each well to reach a final volume of 200 μL. The plates were incubated for 72 h at 37 °C in a CO2 incubator, and at the end of the incubation period, the cell growth was determined by the MTT staining method, as described earlier. Drug interactions were evaluated using CompuSyn software. Each dose-response curve (for individual agents as well as combinations) was fit to a linear model using the median effect equation in order to obtain the median effect value (corresponding to the IC50) and slope (m). The goodness-of-fit was assessed using the linear correlation coefficient, r, and only data from analysis with r > 0.90 are presented. The extent of the interaction between drugs was expressed using the combination index in which a CI value close to 1 indicates additivity, while CI < 1 is defined as synergy and CI > 1 as antagonism.

[6] = system: COLO 320/MDR-LRP multidrug resistant colonic adenocarcinoma cells expressing P-gp; assay: Antiproliferative MTT assay, COLO 320; details: for IC50: read-out: IC50 (µM) ± SD COLO 320; for SI MRC-5/COLO 320: selectivity index: IC50 in non-tumour cells / IC50 in cancer cells
Procedure: as §1, §2

[7] = system: superoxide anion generation; parameters: method as in PMID 27940118; details: anti-inflammatory activity ref 16; cited from earlier work
[8] = MTT, 72 h, four parallel measurements

| Molecule | IC50 ([1]; Homo sapiens, HeLa) [µM] | SI MRC-5/HeLa [1] | IC50 ([2]; Homo sapiens, MRC5, 72 h) [µM] | IC50 [3] [µM] | activity relative to positive control cisplatin ([4]; COLO 205 cells) | IC50 ([4]; Homo sapiens, COLO 205, 72 h) [µM] | IC50 [4] [µM] | Interaction [5] | CI (combination index) [5] | IC50 ([6]; Homo sapiens, COLO 320, 72 h) [µM] | SI MRC-5/COLO 320 [6] | SI MRC-5/COLO 205 [4] | IC50 [1] [µM] | IC50 ([2]; 72 h) [µM] | IC50 [6, 8] [µM] | IC50 [7] [µM] |
| --- | --- | --- | --- | --- | --- | --- | --- | --- | --- | --- | --- | --- | --- | --- | --- | --- |
| Cc1cc(O)c2c(c1C(O)COc1cc(-c3cc(=O)c4c(O)cc(O)cc4o3)ccc1O)CCc1c-2ccc(O)c1C (stereo not drawn) [Compound 1, Ensifolin A] | 8.25 ± 0.51 | 2.34 | 19.3 ± 0.54 | 3.9 to 12.7 | more than ten-fold | 3.9 | 3.86 ± 0.08 | strong synergism (0.1 < CI < 0.3: strong synergism) | 0.272 | 12.71 ± 0.05 | 1.52 |  |  |  |  |  |
| C=Cc1cc(C)cc2c1-c1ccc(O)c(C)c1C(O)C2 (stereo not drawn) [Compound 3, 2,10-dihydroxy-1,7-dimethyl-5-vinyl-9,10-dihydrophenanthrene] | > 100 |  | > 100 |  |  | > 100 |  | synergism (0.3 < CI < 0.7: synergism) | 0.580 | > 100 |  |  |  |  |  |  |
| C=Cc1cc(C)cc2c1-c1ccc(O)c(COC)c1CC2 [Compound 4, Ensifolin D] | 19.4 ± 0.33 | >5.15 | > 100 |  |  | 65.6 ± 0.78 |  | synergism (0.3 < CI < 0.7: synergism) | 0.643 | 61.6 ± 9.95 | >1.62 | >1.52 |  |  |  |  |
| C=Cc1c(C)cc(O)c2c1CCc1c-2ccc(O)c1C [Compound 5, 2,5-dihydroxy-1,7-dimethyl-8-vinyl-9,10-dihydrophenanthrene] | 27.5 ± 1.19 | 1.61 | 44.3 ± 0.61 | 25.2 to 31.2 |  | 31.2 ± 0.66 |  | very strong synergism (CI < 0.1: very strong synergism) |  | 25.2 ± 0.92 | 1.76 | 1.42 |  |  |  |  |
| C=Cc1c(CO)cc(O)c2c1CCc1c-2ccc(O)c1C [Compound 6, Ensifolin F] | 74.3 ± 2.98 | >1.35 | > 100 |  |  | > 100 |  | strong synergism (0.1 < CI < 0.3: strong synergism) | 0.159 | 93.71 ± 0.14 | >1.07 |  |  |  |  |  |
| CC(=O)c1c(C)cc(O)c2c1CCc1c-2ccc(O)c1C [Compound 7, Ensifolin G] | 75.6 ± 0.94 | >1.32 | > 100 |  |  | > 100 |  | synergism (0.3 < CI < 0.7: synergism) | 0.568 | > 100 |  |  |  |  |  |  |
| C=Cc1c(C)cc(O)c2c1CCc1c-2cc(-c2cc3c(c(C)c2O)CCc2c(C=C)c(C)cc(O)c2-3)c(O)c1C [Compound 10, Ensifolin J] | 33.5 ± 1.89 | 1.72 | 57.8 ± 1.32 |  |  | 44.5 ± 1.22 |  | synergism (0.3 < CI < 0.7: synergism) | 0.454 | 42.8 ± 1.28 | 1.35 | 1.30 |  |  |  |  |
| C=Cc1c(C)cc(O)c2c1CCc1c-2cc(-c2c(O)c(C)c(C=C)c3ccc4c(C)c(O)ccc4c23)c(O)c1C [Compound 11, Ensifolin K] | 29.5 ± 0.31 | 1.12 | 33.16 ± 0.05 |  |  | 31.4 ± 0.72 |  | strong synergism (0.1 < CI < 0.3: strong synergism) | 0.112 | 37.8 ± 1.05 | 0.88 | 1.06 |  |  |  |  |
| C=Cc1c(C)cc(O)c2c1CCc1c-2cc(-c2c(C)c(C=C)c3c(c2O)-c2ccc(O)c(C)c2CC3)c(O)c1C [Compound 12, Ensifolin L] | 30.22 ± 0.21 | 1.67 | 50.4 ± 1.3 |  |  | 26.9 ± 1.19 |  | strong synergism (0.1 < CI < 0.3: strong synergism) | 0.120 | 37.4 ± 2.13 | 1.35 | 1.87 |  |  |  |  |
| C=Cc1cc(C)cc2c1-c1ccc(O)c(C)c1CC2 [Compound 14, 2-hydroxy-1,7-dimethyl-5-vinyl-9,10-dihydrophenanthrene] | 58.1 ± 1.2 | 1.05 | 60.89 ± 0.25 |  |  | 32.9 ± 0.59 |  | synergism (0.3 < CI < 0.7: synergism) | 0.579 | 52.4 ± 0.77 | 1.16 | 1.85 |  |  |  |  |
| C#Cc1c(C)c(O)cc2c1CCc1c-2ccc(O)c1C [Compound 16, juncatrin B] |  | 3.91 |  |  |  |  | 34.4 ± 0.57 | synergism (0.3 < CI < 0.7: synergism) | 0.682 |  | 0.80 | 0.76 | 6.65 ± 0.1 | 26 ± 0.85 | 32.5 ± 0.75 |  |
| O=Cc1ccc(O)cc1 [Compound 18, 4-hydroxybenzaldehyde] | > 100 |  | > 100 |  |  | > 100 |  |  |  | > 100 |  |  |  |  |  |  |
| O=c1cc(-c2ccc(O)c(O)c2)oc2cc(O)cc(O)c12 [Compound 19, luteolin] | > 100 |  | > 100 |  |  | > 100 |  |  |  | > 100 |  |  |  |  |  |  |
| N.N.[Cl][Pt][Cl] [cisplatin, reference compound] |  |  |  |  |  |  | 41.7 ± 1.62 |  |  |  |  |  | 3.62 ± 0.16 | 2.36 ± 0.33 |  |  |
| COc1cccc2c1C(=O)c1c(O)c3c(c(O)c1C2=O)C[C@@](O)(C(=O)CO)C[C@@H]3O[C@H]1C[C@H](N)[C@H](O)[C@H](C)O1 [doxorubicin] | 0.04 ± 0.004 |  | 0.53 ± 0.06 |  |  | 1.36 ± 0.36 |  |  |  | 0.22 ± 0.004 |  |  |  |  |  |  |
| C=Cc1c(C)c(O)cc2c1-c1ccc(O)c(C)c1CC2 [juncusol, reference compound] |  |  |  |  |  |  |  |  |  |  |  |  |  |  |  | 3.1 |
| sylvaticin A [Compound 17] |  | >9.47 |  |  |  |  | 56.7 ± 0.75 | strong synergism (0.1 < CI < 0.3: strong synergism) | 0.279 |  | >1.73 | >1.76 | 10.56 ± 0.09 | > 100 | 57.7 ± 0.92 |  |
